Here are results for twelve compounds from patent US4125500A, “Cyclic phosphites of sugar alcohols and polymers stabilized therewith” (Hoechst Aktiengesellschaft, priority 1976, dated 1978).

Data set [1] in a line: stability to hydrolysis (boiling in deionized water, titration of liberated phosphorous acid). Format: physicochemical. The procedure:
The stability to hydrolysis was tested according to the process disclosed in DT-OS 2,144,181, pages 7/8. 5.0 g each of the respective phosphite were boiled for 20 and 60 minutes in 100 ml of deionized water. The mixture was then allowed to cool, filtered to remove residues, if any, and in the filtrate the liberated phosphorous acid was titrated with 0.1N KOH against bromophenol blue.
In the following table is indicated the degree of hydrolysis determined under the specified conditions as quotient of the actual consumption of KOH and the theoretically possible consumption with a complete hydrolysis.

Data set [2] is described as follows: dynamic heat stability (rolling stability) in PVC, discoloration of rough sheet. As to conditions: 180° C, two roll mill, 0.5 part phosphite.
Protocol: (§1) The parts in the following description are parts by weight.
(§2) Each time 100 parts of a mass polyvinyl chloride having a K value of 60 were intimately mixed with
0.2 part of 2-phenyl-indole,
3.0 parts of epoxidized soybean oil
0.3 part of stearyl stearate
0.5 part of glycerol monostearate and
(§3) 0.5 part of the respective phosphite of the invention.
To measure the dynamic heat stability (rolling stability) the mixtures were rolled on a two roll mill at 180° C. and with 20 revolutions per minute. At intervals of 10 minutes samples were taken from the rough sheet and the color of the samples was compared with the colors of a proper color chart. Rolling was continued until the rough sheet had turned black.
In the color chart used the individual notes have the following meaning:
4 = dark yellow-brown color
A short description of data set [3]: static heat stability (furnace stability) in PVC, time until black coloration. As to conditions: heating cabinet with air circulation, 0.5 part phosphite.
Protocol: as §1, §2
0.2 part of 2-phenyl-indole,
3.0 parts of epoxidized soybean oil
0.3 part of stearyl stearate
0.5 part of glycerol monostearate and
as §3
In order to measure the static heat stability (furnace stability) a rough sheet was prepared as described above and the sheet was rolled for a further 10 minutes at 180° C. Flat samples having a diameter of about 30 mm were punched out of the rough sheet removed from the mill and having a thickness of about 0.5 mm, the samples were wrapped in aluminum foil and heated to 180° C. in a heating cabinet with air circulation. At intervals of 10 minutes each a sample was taken from the cabinet and the color thereof was compared with that of the color chart.
The mark [4] stands for this setting: boiling deionized water, 20 min.
Where [5] appears, read: 20 minutes boiling in deionized water.
Setting [6] is: 60 minutes boiling in deionized water.

On to “Tri-stearyl-mannityl-triphosphite [Example 2]”, for which the “degree of hydrolysis after 20 minutes” value in data set [1] (setting [4]) is 5 % of theory. For the same compound, in data set [1] (boiling deionized water, 1 h), the “degree of hydrolysis after 60 minutes” value was 10 % of theory. In data set [2], the “dynamic (rolling) stability, discoloration of rough sheet after a rolling time of 10'” value (shortened to “dynamic (rolling) stability … of 10'”) is listed as 1; the “dynamic (rolling) stability, discoloration of rough sheet after a rolling time of 20'” value (“dynamic (rolling) stability … of 20'” below) is given as 1-2; the “dynamic (rolling) stability, discoloration of rough sheet after a rolling time of 30'” value (from here on “dynamic (rolling) stability … of 30'”) turned out to be 2; the “dynamic (rolling) stability, discoloration of rough sheet after a rolling time of 40'” value (shortened to “dynamic (rolling) stability … of 40'”) is recorded as 2-3. Moreover, in data set [2], the “dynamic (rolling) stability, discoloration of rough sheet after a rolling time of 50'” value (“dynamic (rolling) stability … of 50'” below) is listed as 3; the “dynamic (rolling) stability, discoloration of rough sheet after a rolling time of 60'” value (“dynamic (rolling) stability … of 60'” below) is listed as 3; the “dynamic (rolling) stability, discoloration of rough sheet after a rolling time of 70'” value (from here on “dynamic (rolling) stability … of 70'”) is 4; the “dynamic (rolling) stability, discoloration of rough sheet after a rolling time of 80'” value (“dynamic (rolling) stability … of 80'” for short) came to 4.
On to “Tristearyl-sorbityl diphosphite monophosphate [Example 25]”, for which, in data set [1] (setting [5]), the “degree of hydrolysis after 20 minutes” value is given as 9 % of theory.
For the compound “distearyl-sorbityl diphosphite [Example 10]”, the “static (furnace) stability, black coloration at 180° C after” value (“static (furnace) stability” for short) in data set [3] is 60 '. In data set [2], the “dynamic (rolling) stability … of 10'” value was found to be 1; the “dynamic (rolling) stability … of 20'” value is on record as 1-2; the “dynamic (rolling) stability … of 30'” value was determined as 2; the “dynamic (rolling) stability … of 40'” value is 3. For the same compound, in data set [2], the “dynamic (rolling) stability … of 50'” value was determined as 4 and the “dynamic (rolling) stability … of 60'” value is given as 5.
For the compound “Tri-stearyl-dulcityl-triphosphite [Example 3]”, the “static (furnace) stability” value in data set [3] is 60 '. Further, in data set [2], the “dynamic (rolling) stability … of 10'” value is listed as 1; the “dynamic (rolling) stability … of 20'” value was 1-2; the “dynamic (rolling) stability … of 30'” value came to 2; the “dynamic (rolling) stability … of 40'” value was found to be 3. In data set [2], the “dynamic (rolling) stability … of 50'” value worked out at 4 and the “dynamic (rolling) stability … of 60'” value is 5.
For `CCCCCCCCCCCCCCCCCCOP1OCC2(CO1)COP(OCCCCCCCCCCCCCCCCCC)OC2` (stereo not drawn) [distearyl-pentaerthrityl-diphosphite, distearyl-pentaerythritol diphosphite, reference compound], the “degree of hydrolysis after 20 minutes” value in data set [1] (setting [5]) is recorded as 55 % of theory. Further, the “degree of hydrolysis after 60 minutes” value in data set [1] (setting [6]) is on record as 68 % of theory. Moreover, the “static (furnace) stability” value in data set [3] is reported as 50 '. In data set [2], the “dynamic (rolling) stability … of 10'” value is 2-3; the “dynamic (rolling) stability … of 20'” value is 2-3; the “dynamic (rolling) stability … of 30'” value was 3; the “dynamic (rolling) stability … of 40'” value was determined as 3. Further, in data set [2], the “dynamic (rolling) stability … of 50'” value is given as 4 and the “dynamic (rolling) stability … of 60'” value worked out at 5.
Regarding “Tri-stearyl-sorbityl triphosphite [Example 1]”, the “degree of hydrolysis after 20 minutes” value in data set [1] (setting [4]) was 7 % of theory. Moreover, the “degree of hydrolysis after 60 minutes” value in data set [1] (boiling deionized water, 1 h) is given as 17 % of theory. Moreover, in data set [2], the “dynamic (rolling) stability … of 10'” value amounted to 1; the “dynamic (rolling) stability … of 20'” value is reported as 1-2; the “dynamic (rolling) stability … of 30'” value came to 2; the “dynamic (rolling) stability … of 40'” value is listed as 2-3. In data set [2], the “dynamic (rolling) stability … of 50'” value is recorded as 3; the “dynamic (rolling) stability … of 60'” value is on record as 3; the “dynamic (rolling) stability … of 70'” value was 4; the “dynamic (rolling) stability … of 80'” value came out at 4.
Take “Tri-behenyl-sorbityl triphosphite [Example 4]”: the “degree of hydrolysis after 20 minutes” value in data set [1] (setting [4]) is given as 10 % of theory. In data set [2], the “dynamic (rolling) stability … of 10'” value is given as 1; the “dynamic (rolling) stability … of 20'” value is 1-2; the “dynamic (rolling) stability … of 30'” value is on record as 2; the “dynamic (rolling) stability … of 40'” value stood at 2. Moreover, in data set [2], the “dynamic (rolling) stability … of 50'” value stood at 3; the “dynamic (rolling) stability … of 60'” value was 3; the “dynamic (rolling) stability … of 70'” value worked out at 4; the “dynamic (rolling) stability … of 80'” value is given as 5.
As to “distearyl-monododecyl-mercapto-sorbityl triphosphite [Example 23]”, the “static (furnace) stability” value in data set [3] is on record as 60 '. In addition, in data set [2], the “dynamic (rolling) stability … of 10'” value was found to be 2; the “dynamic (rolling) stability … of 20'” value was 3; the “dynamic (rolling) stability … of 30'” value is given as 3; the “dynamic (rolling) stability … of 40'” value is recorded as 3. In addition, in data set [2], the “dynamic (rolling) stability … of 50'” value is given as 3-4; the “dynamic (rolling) stability … of 60'” value is listed as 4; the “dynamic (rolling) stability … of 70'” value is listed as 5.
Turning to “Di-behenyl-erythrityl diphosphite [Example 8]”, the “degree of hydrolysis after 20 minutes” value in data set [1] (setting [4]) is given as 7 % of theory. In addition, the “degree of hydrolysis after 60 minutes” value in data set [1] (boiling deionized water, 1 h) is listed as 11 % of theory. In addition, the “static (furnace) stability” value in data set [3] is recorded as 60 '. Further, in data set [2], the “dynamic (rolling) stability … of 10'” value came to 1; the “dynamic (rolling) stability … of 20'” value is on record as 1-2; the “dynamic (rolling) stability … of 30'” value is 1-2; the “dynamic (rolling) stability … of 40'” value is 2. In data set [2], the “dynamic (rolling) stability … of 50'” value was 3; the “dynamic (rolling) stability … of 60'” value came out at 4; the “dynamic (rolling) stability … of 70'” value stood at 5.
`c1ccc(OP(Oc2ccccc2)Oc2ccccc2)cc1` [triphenyl phosphite, reference compound]: the “degree of hydrolysis after 20 minutes” value in data set [1] (setting [5]) is listed as 84 % of theory. Also, the “degree of hydrolysis after 60 minutes” value in data set [1] (setting [6]) was 100 % of theory. Also, the “static (furnace) stability” value in data set [3] is given as 50 '. In data set [2], the “dynamic (rolling) stability … of 10'” value is recorded as 1; the “dynamic (rolling) stability … of 20'” value amounted to 2; the “dynamic (rolling) stability … of 30'” value is given as 2-3; the “dynamic (rolling) stability … of 40'” value stood at 5.
On to “trisnonylphenyl phosphite [reference compound]”, for which the “degree of hydrolysis after 20 minutes” value in data set [1] (setting [5]) is 57 % of theory. In addition, the “degree of hydrolysis after 60 minutes” value in data set [1] (setting [6]) is 92 % of theory. Also, in data set [3], the “static (furnace) stability” value is given as 40 '. Also, in data set [2], the “dynamic (rolling) stability … of 10'” value was 1; the “dynamic (rolling) stability … of 20'” value was 2; the “dynamic (rolling) stability … of 30'” value was 2-3; the “dynamic (rolling) stability … of 40'” value was 3. In data set [2], the “dynamic (rolling) stability … of 50'” value amounted to 5.
On to “Tri-behenyl-mannityl triphosphite [Example 5]”, for which the “degree of hydrolysis after 20 minutes” value in data set [1] (setting [4]) is reported as 7 % of theory. Besides, the “degree of hydrolysis after 60 minutes” value in data set [1] (boiling deionized water, 1 h) is listed as 23 % of theory. Moreover, in data set [2], the “dynamic (rolling) stability … of 10'” value came out at 1; the “dynamic (rolling) stability … of 20'” value is given as 1-2; the “dynamic (rolling) stability … of 30'” value turned out to be 2; the “dynamic (rolling) stability … of 40'” value was 2. In addition, in data set [2], the “dynamic (rolling) stability … of 50'” value is 3; the “dynamic (rolling) stability … of 60'” value came to 3; the “dynamic (rolling) stability … of 70'” value was found to be 4; the “dynamic (rolling) stability … of 80'” value came out at 5.
